The test system of series [1] is T1, warfarin–HSA complex.
T1 construct: purchased Sigma-Aldrich
Kind of series: Fluorescence anisotropy of warfarin–HSA complex. In kind it is binding, human. The note with it: 1.0 µmol/L warfarin, 2.0 µmol/L HSA, increasing flavonoid concentrations, λex 317 nm, λem 379 nm. On the procedure:
(§1) Fluorescence spectroscopic measurements were carried out employing a Hitachi F-4500 fluorimeter (Tokyo, Japan). Absorption spectra of flavonoids were recorded using a HALO DB-20 UV-Vis spectrophotometer (Dynamica, London, UK). Spectroscopic measurements were performed in phosphate-buffered saline (pH 7.4; PBS: 8.0 g/L NaCl, 0.2 g/L KCl, 1.81 g/L Na2HPO4·2H2O, and 0.24 g/L KH2PO4) at room temperature, in the presence of air.
To confirm further the displacement of warfarin from HSA by chrysin, C7S, and C7G, fluorescence anisotropy measurements were also performed. Increasing concentrations of flavonoids (0.0, 1.0, 2.0, 5.0, and 10 µmol/L) were added to warfarin and HSA (1.0 and 2.0 µmol/L, respectively). Fluorescence anisotropy values were determined (λex = 317 nm; λem = 379 nm) as described.

Details of series [2]: method as in PMID 11259985. The conditions noted are these: healthy human volunteers, 400 mg chrysin orally; cited from earlier work.
Series [3] has as its target T2, bovine serum albumin (BSA) (Bos taurus, UniProt P02769).
T2 construct: purchased Sigma-Aldrich
Kind of series: Fluorescence quenching of BSA by flavonoids (Stern–Volmer and Hyperquad2006 evaluation). In kind it is binding. The conditions noted are these: BSA 2 µmol/L, decimal log ± SEM; for Kd: PBS pH 7.4, Hyperquad2006, read-out: logK (binding constant) (converted); for logKSV (Stern–Volmer quenching constant): PBS pH 7.4, λex 295 nm, λem 340 nm. As for the experimental part: as §1
(§2) The complex formation of flavonoids with albumin was tested with both HSA and BSA. Binding constants of flavonoid–albumin complexes were determined by fluorescence quenching, during which emission spectra of albumins (2 µmol/L) were recorded in the presence of increasing flavonoid concentrations (0.0, 0.5, 1.0, 2.0, 3.0, 4.0 and 5.0 µmol/L; λexc = 295 nm). Quenching studies were evaluated based on the graphical application of the Stern–Volmer equation [31, 34]. To eliminate the potential inner filter effects of flavonoids, fluorescence intensities were corrected as described.
(§3) Binding constants (K) of flavonoid–albumin complexes were also evaluated by non-linear fitting employing the Hyperquad2006 program package (Protonic Software, Leeds, UK) as described elsewhere. Binding constants and stoichiometry were quantified based on the model with the lowest standard deviation.

The subject of series [4] is T1, warfarin–HSA complex. Nature of the series: Steady-state fluorescence of warfarin–HSA complex (displacement of warfarin). It counts as binding, human. The note with it: 1.0 µmol/L warfarin, 3.5 µmol/L HSA, flavonoid 0.5–10 µmol/L, λex 317 nm. As for the experimental part: as §1
Displacement of warfarin (site marker of Sudlow’s Site I) from HSA was examined based on the previously reported model. Increasing concentrations of chrysin, C7S, and C7G (0.0, 0.5, 1.0, 2.0, 3.0, 5.0, and 10 µmol/L) were added to standard concentrations of warfarin and HSA (1.0 and 3.5 µmol/L, respectively). Thereafter, fluorescence emission spectra were recorded using 317 nm as excitation wavelength.

The test system of series [5] is T3, warfarin–HSA complex (Sudlow's Site I).
T3 construct: purchased Sigma-Aldrich
Kind of series: Ultrafiltration: displacement of Site I marker warfarin from HSA. It counts as binding, human. The note with it: 1 µmol/L warfarin, 5 µmol/L HSA, PBS pH 7.4. As for the experimental part: (§4) Effects of chrysin, C7S, and C7G on the albumin-binding of Sudow’s Site I (warfarin) and Site II (naproxen) markers were tested by ultrafiltration. In these experiments, Pall Microsep^TM Advance Centrifugal Devices (Pall Corporation, Ann Arbor, MI, USA) (from VWR) with a 30 kDa molecular weight cut-off value were employed, as described elsewhere. To examine the displacement of warfarin by flavonoids, samples contained warfarin and HSA (1.0 and 5.0 µmol/L, respectively) in the absence and presence of flavonoids (10 or 20 µmol/L). Furthermore, to test the displacing ability of chrysin and its metabolites vs. naproxen, flavonoids (10 or 20 µmol/L) were added to naproxen and HSA (1.0 and 1.7 µmol/L, respectively). Each sample was prepared in PBS (pH 7.4). Before ultrafiltration, filter units were washed once with 3 mL of water, and twice with 3 mL of PBS (to completely eliminate glycerol from the filters). Thereafter, samples (2.5 mL each) were driven through the filter units by centrifugation at 7500 g and 25 °C for 10 min (fixed angle rotor). Concentrations of warfarin and naproxen in the filtrate were quantified with HPLC (see details in Section 4.4).
(§5) The HPLC system used to quantify warfarin and naproxen was equipped with a pump (model 510, Waters, Milford, MA, USA) and an injector (Rheodyne 7125, Rheodyne, Berkeley, CA, USA) with a 20 µL sample loop. Warfarin and naproxen were analyzed with a fluorescence detector (Jasco FP-920, Reanal) and an UV detector (Waters 486), respectively. Data were evaluated using Millennium Chromatography Manager (Waters).
Warfarin was analyzed based on the previously reported method without modifications. Methanol (VWR), acetonitrile (VWR), and sodium phosphate buffer (20 mM, pH 7.0) (25:5:70 v/v%) were applied in the mobile phase with 1 mL/min flow rate during the isocratic elution. Samples were driven through a guard column (Phenomenex SecurityGuard^TM Catridge C18 4.0 × 3.0 mm) linked to an analytical column (Nova-Pak C18 150 × 3.9 mm, 4 μm). Separation and analysis were performed at room temperature, during which warfarin was detected by fluorescence employing 310 and 390 nm as excitation and emission wavelengths, respectively.

Series [6] has as its target T4, human serum albumin (HSA) (Homo sapiens, UniProt P02768).
T4 construct: purchased Sigma-Aldrich
Nature of the series: Fluorescence quenching of HSA by flavonoids (Stern–Volmer and Hyperquad2006 evaluation). It counts as binding. The conditions noted are these: for Kd / logKSV (Stern–Volmer quenching constant): HSA 2 µmol/L, decimal log ± SEM; for Kd: PBS pH 7.4, Hyperquad2006, read-out: logK (binding constant) (converted); for logKSV (Stern–Volmer quenching constant): PBS pH 7.4, λex 295 nm, λem 340 nm; for Stability of flavonoid–HSA complex vs. the chrysin–HSA complex: relative to chrysin–HSA. On the procedure:
as §1, §2, §3

The subject of series [7] is T5, naproxen–HSA complex (Sudlow's Site II).
T5 construct: purchased Sigma-Aldrich
Nature of the series: Ultrafiltration: displacement of Site II marker naproxen from HSA. In kind it is binding, human. The conditions noted are these: 1 µmol/L naproxen, 1.7 µmol/L HSA, PBS pH 7.4. As for the experimental part:
as §4, §5
Naproxen was quantified based on the previously reported method without modifications. Acetonitrile and sodium acetate buffer (6.9 mM, pH 4.0) (50:50 v/v%) were applied in the mobile phase with a 1 mL/min flow rate during the isocratic elution. […] Separation and analysis were performed at room temperature, during which naproxen was detected by absorbance at 230 nm.

On the set-up of series [8]: method as in PMID 25715997. The note with it: mice, oral administration of 20 mg/kg chrysin; read-out: Cmax (peak plasma concentration); cited from earlier work.
Series [9] relates to HSA. The conditions noted are these: cited from earlier work.
The mark [10] stands for this setting: 10 or 20 μM flavonoid (both concentrations).
The mark [11] stands for this setting: 10 and 20 μM flavonoid (both concentrations).

SMILES strings stand for the structures.

T4 sequence (P02768 25-609): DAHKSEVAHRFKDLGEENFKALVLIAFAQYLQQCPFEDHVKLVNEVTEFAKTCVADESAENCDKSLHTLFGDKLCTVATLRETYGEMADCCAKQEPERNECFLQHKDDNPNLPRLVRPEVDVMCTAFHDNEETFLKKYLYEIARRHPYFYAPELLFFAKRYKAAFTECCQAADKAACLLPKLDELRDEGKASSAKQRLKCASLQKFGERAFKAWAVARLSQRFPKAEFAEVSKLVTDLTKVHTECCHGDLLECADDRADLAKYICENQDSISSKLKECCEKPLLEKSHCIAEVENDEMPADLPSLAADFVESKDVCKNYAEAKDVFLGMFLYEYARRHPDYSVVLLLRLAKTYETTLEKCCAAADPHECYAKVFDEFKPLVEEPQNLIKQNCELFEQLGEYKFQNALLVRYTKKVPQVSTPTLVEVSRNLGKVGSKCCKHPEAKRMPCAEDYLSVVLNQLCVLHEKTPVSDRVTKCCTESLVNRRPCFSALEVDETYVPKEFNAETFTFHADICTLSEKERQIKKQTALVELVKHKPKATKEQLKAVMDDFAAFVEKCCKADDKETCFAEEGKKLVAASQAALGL
T2 sequence (P02769 25-607): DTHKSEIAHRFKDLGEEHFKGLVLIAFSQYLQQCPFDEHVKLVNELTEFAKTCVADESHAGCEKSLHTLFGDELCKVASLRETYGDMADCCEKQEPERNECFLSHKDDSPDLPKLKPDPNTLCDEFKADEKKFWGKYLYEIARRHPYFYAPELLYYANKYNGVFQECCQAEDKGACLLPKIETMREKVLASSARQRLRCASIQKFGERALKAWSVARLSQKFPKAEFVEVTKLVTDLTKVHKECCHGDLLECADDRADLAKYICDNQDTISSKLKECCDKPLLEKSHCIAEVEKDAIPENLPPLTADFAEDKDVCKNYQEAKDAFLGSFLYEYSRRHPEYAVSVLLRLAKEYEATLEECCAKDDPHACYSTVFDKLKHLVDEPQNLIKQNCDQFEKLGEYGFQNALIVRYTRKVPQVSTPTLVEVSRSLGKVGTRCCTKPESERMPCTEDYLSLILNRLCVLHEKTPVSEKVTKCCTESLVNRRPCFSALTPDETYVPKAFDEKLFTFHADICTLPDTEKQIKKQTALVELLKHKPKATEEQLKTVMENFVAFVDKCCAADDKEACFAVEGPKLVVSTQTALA

Regarding `O=c1cc(-c2ccccc2)oc2cc(OS(=O)(=O)O)cc(O)c12` [Chrysin-7-sulfate, chrysin-7-sulfate], the “Fluorescence anisotropy of warfarin” value in [1] is recorded as “strong decrease”. Moreover, in series [2], the “AUC0–∞” value was 420 to 4220 ng·h/mL and the “AUC0–∞ of C7S compared with chrysin” value is “approximately 30 fold”. Moreover, in series [3], the Kd was 0.631 µM and the “logKSV (Stern–Volmer quenching constant)” value is recorded as 5.86 ± 0.04 L/mol. Moreover, in series [4], the “Fluorescence emission signal of warfarin at 379 nm” value (“Fluorescence emission signal” for short) is “strongest decrease”. The “Concentration of warfarin in the filtrate” value (“Concentration of warfarin” for short) in [5] (10 μM flavonoid) is “remarkable increase”. In addition, the “Concentration of warfarin” value in [5] (setting [10]) is given as “practically the complete displacement of bound warfarin molecules from HSA”. In series [6], the Kd was 1.32 µM, the “logKSV (Stern–Volmer quenching constant)” value came out at 5.61 ± 0.03 L/mol and the “Stability of flavonoid–HSA complex vs. the chrysin–HSA complex” value was “threefold higher”. In addition, the “Concentration of naproxen in the filtrate” value (“Concentration of naproxen” for short) in [7] (setting [11]) is “statistically significant elevation”. Further, in series [8], the Cmax was 160 nM.
With `O=C(O)C1OC(Oc2cc(O)c3c(=O)cc(-c4ccccc4)oc3c2)C(O)C(O)C1O` (stereo not shown) [Chrysin-7-glucuronide, chrysin-7-glucuronide], in series [3], the Kd is 23.4 µM and the “logKSV (Stern–Volmer quenching constant)” value is on record as 4.34 ± 0.03 L/mol. Also, the “Fluorescence emission signal” value in series [4] is recorded as “only a slight (but statistically significant) effect”. Further, in series [5] (setting [10]), the “Concentration of warfarin” value was “did not significantly change”. Also, in series [6], the Kd is 12.9 µM, the “logKSV (Stern–Volmer quenching constant)” value is reported as 4.71 ± 0.03 L/mol and the “Stability of flavonoid–HSA complex vs. the chrysin–HSA complex” value was “threefold lower”. The “Concentration of naproxen” value in series [7] (higher flavonoid concentration (20 μM)) is listed as “significant effect”. Further, in series [8], the Cmax is 130 nM.
With `C[C@@H]1Cc2c(Cl)cc(C(=O)N[C@@H](Cc3ccccc3)C(=O)O)c(O)c2C(=O)O1` [Ochratoxin A, ochratoxin A, reference compound], the “logK (complex with HSA)” value in series [9] is 7.4–7.6.
As to `O=c1cc(-c2ccccc2)oc2cc(O)cc(O)c12` [Chrysin, 5,7-dihydroxyflavone], the “K (binding constant to HSA)” value in series [9] is 10^5–10^6 L/mol. In addition, the “Fluorescence anisotropy of warfarin” value in series [1] is reported as “strong decrease”. In addition, the “AUC0–∞” value in series [2] is 3 to 16 ng·h/mL. Moreover, the results for the Kd in series [3] and in [6] were 6.31 µM and 3.89 µM, respectively. Moreover, the “logKSV (Stern–Volmer quenching constant)” value in [3] worked out at 5.03 ± 0.06 L/mol; in [6], 5.25 ± 0.02 L/mol. The “Fluorescence emission signal” value in series [4] is “significantly decreased”. For the same molecule, the “Concentration of warfarin” value in series [5] (20 μM flavonoid) is reported as “statistically significant (albeit slight) increase”. In addition, the “Concentration of naproxen” value in [7] (setting [11]) was “statistically significant elevation”. Moreover, the Cmax in series [8] is 10 nM.

The values above are taken from article PMC6320863, “Interaction of Chrysin and Its Main Conjugated Metabolites Chrysin-7-Sulfate and Chrysin-7-Glucuronide with Serum Albumin” (International Journal of Molecular Sciences, 2018).
